# From the supplement of paper PMC11061612
# Columns and labels:
# Assay in all cases: Bliss excess, mean over the matrix (fraction); higher = more synergy
# CAL-78 (Chondrosarcoma) = test system: CAL-78 (Chondrosarcoma)
# Method in brief: (§1)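 Bliss excess equals the observed combination effect minus the expected value EA + EB − EA·EB, where EA and EB are the effects of each agent alone. Combination Emax is the second-highest inhibition within the matrix. Inhibition was scaled from CellTiter-Glo 2.0 luminescence, with 0 set by vehicle wells and 1 by blank wells, after 72 hours of two-drug dosing of cells plated in 1536-well plates.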
# [1] = test system: NCI-H1793 (Lung Adenocarcinoma)
# Method in brief: as §1
# [2] = test system: OCI-AML2 (Acute Myeloid Leukemia)
# Method in brief: as §1
# [3] = test system: LS-513 (Colorectal Carcinoma)
# Method in brief: as §1
# SK-N-FI (Neuroblastoma) = test system: SK-N-FI (Neuroblastoma)
# Method in brief: as §1
# [4] = test system: LU-99A (Non-Small Cell Lung Carcinoma)
# Method in brief: as §1
# [5] = test system: SUIT-2 (Pancreatic Carcinoma)
# Method in brief: as §1
# [6] = test system: U-266 (Plasma Cell Myeloma)
# Method in brief: as §1
# [7] = test system: JiyoyeP-2003 (Burkitt's Lymphoma)
# Method in brief: as §1
# [8] = test system: DOV13 (Ovarian Carcinoma)
# Method in brief: as §1
# [9] = test system: NCI-H1299 (Non-Small Cell Lung Carcinoma)
# Method in brief: as §1
# [10] = test system: HCC2157 (Breast Carcinoma)
# Method in brief: as §1
# ES7 (Ewing's Sarcoma) = test system: ES7 (Ewing's Sarcoma)
# Method in brief: as §1
# [11] = test system: DB (B-Cell Non-Hodgkin's Lymphoma)
# Method in brief: as §1
# [12] = test system: NALM-6 (B-Lymphoblastic Leukemia)
# Method in brief: as §1
# [13] = test system: C3A (Hepatocellular Carcinoma)
# Method in brief: as §1
# [14] = test system: MDA-MB-157 (Breast Carcinoma)
# Method in brief: as §1
# [15] = test system: KARPAS-620 (Plasma Cell Myeloma)
# Method in brief: as §1
# [16] = test system: EM-2 (Chronic Myelogenous Leukemia)
# Method in brief: as §1
# DSH1 (Bladder Carcinoma) = test system: DSH1 (Bladder Carcinoma)
# Method in brief: as §1
SMILES,Bliss excess (CAL-78 (Chondrosarcoma)),Bliss excess [1],Bliss excess [2],Bliss excess [3],Bliss excess (SK-N-FI (Neuroblastoma)),Bliss excess [4],Bliss excess [5],Bliss excess [6],Bliss excess [7],Bliss excess [8],Bliss excess [9],Bliss excess [10],Bliss excess (ES7 (Ewing's Sarcoma)),Bliss excess [11],Bliss excess [12],Bliss excess [13],Bliss excess [14],Bliss excess [15],Bliss excess [16],Bliss excess (DSH1 (Bladder Carcinoma))
"CCc1c2c(nc3ccc(O)cc13)-c1cc3c(c(=O)n1C2)COC(=O)[C@]3(O)CC [SN-38] + CN(C)CCCOc1ccc(-c2ccc3ncc4c(c3c2)n(C2CCOCC2)c(=O)n4C)cn1 [AZD0156] (first compound max 0.3 µM, 7x7, partner max 1 µM)",-0.0547,-0.026,0.0764,-0.0878,0.0628,0.0406,0.0446,-0.0099,0.0406,-0.0192,0.0495,0.142,0.0565,-0.0305,0.0336,-0.0646,0.0653,-0.0242,0.0812,-0.0382
"C[C@@H](c1ccc2nccn2c1)n1nnc2ncc(-c3cnn(C)c3)nc21 [Savolitinib] + CC1(C)CCC(CN2CCN(c3ccc(C(=O)NS(=O)(=O)c4ccc(NCC5CCOCC5)c([N+](=O)[O-])c4)c(Oc4cnc5[nH]ccc5c4)c3)CC2)=C(c2ccc(Cl)cc2)C1 [Venetoclax] (first compound max 1 µM, 7x7, partner max 1 µM)",-0.0872,-0.0566,-0.0246,-0.0599,-0.0537,-0.0746,-0.0737,-0.0118,-0.0438,-0.0552,-0.0418,0.0068,-0.0354,0.0216,0.01,-0.0545,-0.0411,-0.0449,-0.0593,0
"COc1nnc2ccc(N3CCC(c4ccc(OCCN5CCN(C)C(=O)[C@H]5C)cc4)CC3)nn12 [AZD5153] + Cc1c2c(nn1C)CSCc1cc(n(C)n1)CSc1cc(c3ccccc3c1)OCCCc1c(C(=O)O)n(C)c3c-2c(Cl)ccc13 [AZD5991] (first compound max 1 µM, 7x7, partner max 1 µM)",-0.0263,-0.0484,-0.0185,-0.0549,-0.0656,0.0087,-0.0318,-0.106,-0.0218,-0.108,-0.0313,0.0049,0.0052,0.0507,-0.0732,-0.0262,0.0297,-0.0115,0.0004,0.0112
"Cn1cnc2c(F)c(Nc3ccc(Br)cc3Cl)c(C(=O)NOCCO)cc21 [Selumetinib] + CCN(CCO)CCCOc1ccc2c(Nc3cc(CC(=O)Nc4cccc(F)c4)[nH]n3)ncnc2c1 [AZD2811] (first compound max 10 µM, 7x7, partner max 1 µM)",-0.0522,-0.0302,0.0545,-0.0184,0.0239,-0.0383,-0.0526,0.0128,-0.0053,-0.0915,-0.0205,0.0194,-0.0524,-0.125,0.0318,-0.0272,-0.0064,0.193,-0.0526,0.0022
"Cc1c2c(nn1C)CSCc1cc(n(C)n1)CSc1cc(c3ccccc3c1)OCCCc1c(C(=O)O)n(C)c3c-2c(Cl)ccc13 [AZD5991] + C[C@@H](Nc1cc(F)cc(F)c1)c1cc(C(=O)N(C)C)cc2c(=O)cc(N3CCOCC3)oc12 [AZD8186] (first compound max 1 µM, 7x7, partner max 3 µM)",-0.0799,-0.0254,-0.0721,-0.0331,-0.024,-0.0534,-0.015,-0.0496,0.0635,0.0294,-0.0181,0.0105,0.0995,-0.0287,0.0341,-0.0375,0.0836,-0.0113,-0.0528,-0.0603
"COc1cccc(OCCCN)c1-c1cc(Nc2cnc(C#N)cn2)n[nH]1 [Prexasertib] + Cc1cc2ncnn2cc1Nc1ncc2c(n1)n(C1CCOCC1)c(=O)n2C [AZD7648] (first compound max 1 µM, 7x7, partner max 10 µM)",-0.0473,0.0257,-0.0211,-0.0509,-0.0084,-0.0343,-0.0063,-0.0518,0.017,0.0069,-0.0577,-0.0315,-0.0483,-0.0319,-0.044,-0.0264,-0.0594,0.0083,-0.0274,-0.0289
"COc1nnc2ccc(N3CCC(c4ccc(OCCN5CCN(C)C(=O)[C@H]5C)cc4)CC3)nn12 [AZD5153] + CC1(C)CCC(CN2CCN(c3ccc(C(=O)NS(=O)(=O)c4ccc(NCC5CCOCC5)c([N+](=O)[O-])c4)c(Oc4cnc5[nH]ccc5c4)c3)CC2)=C(c2ccc(Cl)cc2)C1 [Venetoclax] (first compound max 1 µM, 7x7, partner max 1 µM)",-0.0999,-0.0104,-0.0422,-0.0442,-0.0581,-0.0853,-0.0769,-0.157,-0.0302,-0.0751,-0.0496,0.0328,-0.0694,-0.0114,-0.0678,-0.105,-0.0454,-0.0637,-0.0384,-0.0524
"CN(C)CCCOc1ccc(-c2ccc3ncc4c(c3c2)n(C2CCOCC2)c(=O)n4C)cn1 [AZD0156] + C=CCn1c(=O)c2cnc(Nc3ccc(N4CCN(C)CC4)cc3)nc2n1-c1cccc(C(C)(C)O)n1 [AZD1775] (first compound max 1 µM, partner max 1 µM)",-0.0854,-0.0489,-0.0258,-0.0448,-0.0308,-0.0422,0.0011,0.0168,-0.0012,-0.0523,-0.0179,-0.0233,-0.0153,-0.0119,0.0093,-0.0866,-0.0177,0.0135,-0.0548,0.0236
"CC(=O)c1c(C)c2cnc(Nc3ccc(N4CCNCC4)cn3)nc2n(C2CCCC2)c1=O [Palbociclib] + CC1(C)CCC(CN2CCN(c3ccc(C(=O)NS(=O)(=O)c4ccc(NCC5CCOCC5)c([N+](=O)[O-])c4)c(Oc4cnc5[nH]ccc5c4)c3)CC2)=C(c2ccc(Cl)cc2)C1 [Venetoclax] (first compound max 10 µM, 7x7, partner max 1 µM)",-0.0333,-0.0136,0.0188,0.0202,0.0104,0.048,-0.0454,-0.116,0.0975,0.0125,0.0231,0.0389,0.0277,0.0187,0.0132,0.0437,-0.0348,0.0056,0.0262,-0.0361
"COc1cccc(OCCCN)c1-c1cc(Nc2cnc(C#N)cn2)n[nH]1 [Prexasertib] + O=C(c1cc(Cc2n[nH]c(=O)c3ccccc23)ccc1F)N1CCN(C(=O)C2CC2)CC1 [Olaparib] (first compound max 1 µM, 7x7, partner max 10 µM)",-0.0535,-0.0106,-0.0242,-0.0666,-0.0683,-0.0849,-0.0219,-0.0895,-0.0421,0.0032,-0.0694,-0.0113,0.0058,-0.0327,-0.0087,-0.0461,-0.104,-0.046,0.0164,-0.162
"Cc1cc2ncnn2cc1Nc1ncc2c(n1)n(C1CCOCC1)c(=O)n2C [AZD7648] + CN(C)CCCOc1ccc(-c2ccc3ncc4c(c3c2)n(C2CCOCC2)c(=O)n4C)cn1 [AZD0156] (first compound max 10 µM, 7x7, partner max 1 µM)",-0.0091,0.0044,-0.022,-0.021,0.0029,-0.0208,-0.0125,0.018,-0.0067,-0.0169,0.0177,0.0081,0.0271,-0.0402,-0.0184,-0.032,0.0406,-0.0373,0.0183,0.0171
"CS(=O)(=O)CCNCc1ccc(-c2ccc3ncnc(Nc4ccc(OCc5cccc(F)c5)c(Cl)c4)c3c2)o1 [Lapatinib] + C[C@@H](Oc1cc(-c2cnn(C3CCNCC3)c2)cnc1N)c1c(Cl)ccc(F)c1Cl [Crizotinib] (first compound max 10 µM, 7x7, partner max 10 µM)",-0.072,-0.0351,-0.0813,-0.023,-0.0365,-0.0205,0.0051,-0.0574,-0.0186,-0.0621,-0.0677,-0.0482,-0.0214,-0.148,-0.0612,-0.0963,-0.0086,-0.0459,-0.0062,0.0668
"CC(=O)Nc1cccc(-n2c(=O)n(C3CC3)c(=O)c3c(Nc4ccc(I)cc4F)n(C)c(=O)c(C)c32)c1 [Trametinib] + Cc1nc(-c2cn3c(n2)-c2ccc(-c4cnn(C(C)(C)C(N)=O)c4)cc2OCC3)n(C(C)C)n1 [Taselisib] (first compound max 1 µM, 7x7, partner max 10 µM)",0.0728,0.0519,0.0227,0.0113,0.033,0.116,0.0928,0.181,0.108,0.136,0.121,0.0554,0.0164,-0.004,-0.0228,0.147,0.0963,0.24,0.319,0.0704
"Cc1c2c(nn1C)CSCc1cc(n(C)n1)CSc1cc(c3ccccc3c1)OCCCc1c(C(=O)O)n(C)c3c-2c(Cl)ccc13 [AZD5991] + CN(C)CCCOc1ccc(-c2ccc3ncc4c(c3c2)n(C2CCOCC2)c(=O)n4C)cn1 [AZD0156] (first compound max 1 µM, 7x7, partner max 1 µM)",-0.0212,0.0332,-0.0647,-0.0378,-0.0036,-0.0175,0.0035,0.0057,-0.0359,-0.0235,0.0163,-0.012,0.0036,-0.0093,0.0032,-0.0266,-0.0169,0.02,-0.0436,-0.013
